Assay results: patent publication US7723068B2, “Gene cluster involved in safracin biosynthesis and its uses for genetic engineering” (PharmaMar, S.A., priority 2002, dated 2010)

Assays:
[1] = system: PANC1; details: Pancreas
[2] = system: A549; details: NSCL
[3] = system: A549; assay: cells; details: Homo sapiens; for GI50: A549, read-out: GI50 A549; for CC50: A549, read-out: LC50 A549
[4] = system: K-562; assay: cells; details: Homo sapiens; for GI50: K562, read-out: GI50 K-562; for CC50: K562, read-out: LC50 K-562
[5] = system: IGROV; details: Ovary
[6] = Antibacterial and antitumoral activities, general statements; details: compared with safracin A / safracin B
[7] = system: HELA; assay: cells; details: Homo sapiens; for GI50: read-out: GI50 HELA; for CC50: read-out: LC50 HELA
[8] = system: HT29; assay: cells; details: Homo sapiens; for GI50: HT-29, read-out: GI50 HT29; for CC50: HT-29, read-out: LC50 HT29
[9] = system: LOVO-DOX; assay: cells; details: for GI50: read-out: GI50 LOVO-DOX; for CC50: read-out: LC50 LOVO-DOX
[10] = system: HELA-APL; assay: cells; details: for GI50: read-out: GI50 HELA-APL; for CC50: read-out: LC50 HELA-APL
[11] = system: LN-caP; details: Prostate
[12] = system: SK-MEL-28; assay: cells; details: Homo sapiens; for GI50: SK-MEL-28, read-out: GI50 SK-MEL-28; for CC50: SK-MEL-28, read-out: LC50 SK-MEL-28
[13] = system: DU-145; assay: cells; details: Homo sapiens; for GI50: DU-145, read-out: GI50 DU-145; for CC50: DU-145, read-out: LC50 DU-145
[14] = system: K-562; details: Leukemia
[15] = system: IGROV; assay: cells; details: for GI50: read-out: GI50 IGROV; for CC50: read-out: LC50 IGROV
[16] = system: IGROV-ET; details: Ovary
[17] = system: SK-BR3; assay: cells; details: Homo sapiens; for GI50: SK-BR-3, read-out: GI50 SK-BR3; for CC50: SK-BR-3, read-out: LC50 SK-BR3
[18] = system: HT29; details: Colon
[19] = system: PANC1; assay: cells; details: Homo sapiens; for GI50: PANC-1, read-out: GI50 PANC1; for CC50: PANC-1, read-out: LC50 PANC1
[20] = system: LOVO-DOX; details: Colon
[21] = system: DU-145; details: Prostate
[22] = system: HELA-APL; details: Cervix
[23] = system: LN-caP; assay: cells; details: Homo sapiens, LNCaP; for GI50: read-out: GI50 LN-caP; for CC50: read-out: LC50 LN-caP
[24] = system: SK-MEL-28; details: Melanoma
[25] = system: LOVO; assay: cells; details: Homo sapiens; for GI50: read-out: GI50 LOVO; for CC50: read-out: LC50 LOVO
[26] = system: IGROV-ET; assay: cells; details: for GI50: read-out: GI50 IGROV-ET; for CC50: read-out: LC50 IGROV-ET
[27] = system: Bacillus subtilis; assay: Antimicrobial activity on solid medium, disk; format: cell-based; details: 10 μg/disk (6 mm diameter)
Procedure: Antimicrobial activity: On solid medium Bacillus subtilis. 10 μg/disk (6 mm diameter): 10 mm inhibition zone Spectroscopic Data: […]

[28] = system: HELA; details: Cervix
[29] = system: SK-BR3; details: Breast
[30] = system: LOVO; details: Colon

Compound: COc1c(C)cc2c(c1O)C1C3Cc4cc(C)c(OC)c(O)c4C(CNC(=O)C(C)N)N3C(O)C(C2)N1C (stereo not shown) [Safracin P-22B]
- TGI PANC1 [1]: 11.7 µM
- TGI A549 [2]: 8.83 µM
- GI50 [3]: 4.71 µM
- CC50 [3]: 16.6 µM
- GI50 [4]: 0.113 µM
- CC50 [4]: 1.84 µM
- TGI IGROV [5]: 2.3 µM
- antibacterial and antitumoral activities (in words) [6]: appear to loose their activity
- GI50 [7]: 0.761 µM
- CC50 [7]: 7.42 µM
- GI50 [8]: 1.01 µM
- CC50 [8]: 18.6 µM
- GI50 [9]: 6.95 µM
- CC50 [9]: > 19 µM
- GI50 [10]: 0.465 µM
- CC50 [10]: 1.86 µM
- TGI LN-caP [11]: 0.608 µM
- GI50 [12]: 0.52 µM
- CC50 [12]: 2.01 µM
- GI50 [13]: 4.58 µM
- CC50 [13]: 16.2 µM
- TGI K-562 [14]: 0.467 µM
- GI50 [15]: 0.849 µM
- CC50 [15]: 12.1 µM
- TGI IGROV-ET [16]: 7.04 µM
- GI50 [17]: 0.824 µM
- CC50 [17]: 8.85 µM
- TGI HT29 [18]: 2.75 µM
- GI50 [19]: 4.77 µM
- CC50 [19]: > 19 µM
- TGI LOVO-DOX [20]: 19 µM
- TGI DU-145 [21]: 8.62 µM
- TGI HELA-APL [22]: 0.932 µM
- GI50 [23]: 0.308 µM
- CC50 [23]: 1.2 µM
- TGI SK-MEL-28 [24]: 0.999 µM
- GI50 [25]: 2.54 µM
- CC50 [25]: 18.4 µM
- GI50 [26]: 3.02 µM
- CC50 [26]: 16.5 µM
- zone of inhibition at 10 µg/disc ([27]; Bacillus subtilis): 10 mm
- TGI HELA [28]: 1.83 µM
- TGI SK-BR3 [29]: 2.28 µM
- TGI LOVO [30]: 6.84 µM

Compound: COc1c(C)cc2c(c1O)C1C3Cc4cc(C)c(OC)c(O)c4C(CNC(=O)C(C)N)N3CC(C2)N1C (stereo not shown) [Safracin P-22A]
- TGI PANC1 [1]: >19.6 µM
- TGI A549 [2]: >19.6 µM
- GI50 [3]: > 19.6 µM
- CC50 [3]: > 19.6 µM
- GI50 [4]: 3.15 µM
- CC50 [4]: 19.6 µM
- TGI IGROV [5]: 19.6 µM
- antibacterial and antitumoral activities (in words) [6]: appear to loose their activity
- GI50 [7]: 8.75 µM
- CC50 [7]: > 19.6 µM
- GI50 [8]: 12.6 µM
- CC50 [8]: > 19.6 µM
- GI50 [9]: > 19.6 µM
- CC50 [9]: > 19.6 µM
- GI50 [10]: 7.66 µM
- CC50 [10]: > 19.6 µM
- TGI LN-caP [11]: 9.26 µM
- GI50 [12]: 5.93 µM
- CC50 [12]: > 19.6 µM
- GI50 [13]: > 19.6 µM
- CC50 [13]: > 19.6 µM
- TGI K-562 [14]: 7.93 µM
- GI50 [15]: 7.74 µM
- CC50 [15]: > 19.6 µM
- TGI IGROV-ET [16]: >19.6 µM
- GI50 [17]: 12.7 µM
- CC50 [17]: > 19.6 µM
- TGI HT29 [18]: >19.6 µM
- GI50 [19]: > 19.6 µM
- CC50 [19]: > 19.6 µM
- TGI LOVO-DOX [20]: >19.6 µM
- TGI DU-145 [21]: >19.6 µM
- TGI HELA-APL [22]: 19.6 µM
- GI50 [23]: 4.19 µM
- CC50 [23]: > 19.6 µM
- TGI SK-MEL-28 [24]: 13.3 µM
- GI50 [25]: > 19.6 µM
- CC50 [25]: > 19.6 µM
- GI50 [26]: 13 µM
- CC50 [26]: > 19.6 µM
- Antimicrobial activity: inhibition zone [27]: NO ACTIVE
- TGI HELA [28]: >19.6 µM
- TGI SK-BR3 [29]: >19.6 µM
- TGI LOVO [30]: >19.6 µM
